Experiments:
[1] = molecular target: T1, σ2-receptor (Rattus norvegicus, UniProt Q5U3Y7); assay: Sigma 2 (Version B) radioligand binding, [3H]-ditolylguanidine, rat liver preparation, σ1 sites masked with (+)-pentazocine; details: for Ki: [3H]-ditolylguanidine 3 nM; for inhibition at 1 µM: compound at 1 μM
T1 construct: the σ2-Receptorpreparation was prepared from rat liver; from tissue; host or cells: rat liver membrane homogenate
T1 sequence (Q5U3Y7 1-176): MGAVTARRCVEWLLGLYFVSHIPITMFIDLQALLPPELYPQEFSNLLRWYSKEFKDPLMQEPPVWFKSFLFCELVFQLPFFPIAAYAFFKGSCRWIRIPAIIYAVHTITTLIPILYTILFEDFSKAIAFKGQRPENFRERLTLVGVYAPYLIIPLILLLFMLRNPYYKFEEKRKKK
Protocol: In brief the σ2-Receptorpreparation was prepared from rat liver. The livers were homogenized in 5 to 6 times of volume sucrose solution (0.32M) and homogenized. The homogenate was centrifuged at 2900 rpm, 4° C., 10 min). the supernatant was centrifuged again (31000×g, 4° C., 20 min). The pellet was resuspended in TRIS-buffer, incubated for 30 min at room temperature while stirring and centrifuged f (31000×g, 4° C., 20 min). The pellet was resuspended in cold TRIS-buffer pH 8 and homogenized. Then the protein content was measured (approx. 2 mg/mL) and the homogenate frozen at −80° C. for later use.
The radioligand used was [^3H]-Ditolylguanidin in TRIS-buffer pH 8. The σ1-receptor binding sites were masked through (+)-Pentazocin-solution in TRIS-Puffer pH 8.
In a volume of 200 μL 50 μL compound solution of varying concentration, 50 μL (+)-Pentazocin-solution (2 μM; resulting in 500 nM in the assay), 50 μL radioligand-solution (12 nM; resulting in 3 nM in the assay) and finally 50 μL of receptor preparation (approx. 2 mg/mL) were given into a well of a microplate equipped with a filter. The plate was closed and stirred for 2 h at room temperature and 500 rpm. Following that the solvents were removed by a harvester through the filter. After rinsing with H2O the filter was measured in a scintillation counter ([^3H]-protocol).

[2] = molecular target: T2, σ1-receptor (Cavia porcellus, UniProt Q60492); assay: Sigma-1 (Version A) radioligand binding, [3H](+)-pentazocine, guinea pig brain membranes
Protocol: Brain membrane preparation and binding assays for the σ1-receptor were performed as described (DeHaven-Hudkins et al., 1992) with some modifications. In brief, guinea pig brains were homogenized in 10 vols. […] The homogenate was centrifuged at 1000 g for 10 min at 4° C. and the supernatants collected and centrifuged again at 48000 g for 15 min at 4° C.
Each assay tube contained 10 μL of [^3H](+)-pentazocine (final concentration of 0.5 nM), 900 μL of the tissue suspension to a final assay volume of 1 mL and a final tissue concentration of approximately 30 mg tissue net weight/mL. […] All tubes were incubated at 37° C. for 150 min before termination of the reaction by rapid filtration over Schleicher & Schuell GF 3362 glass fibre filters [previously soaked in a solution of 0.5% polyethylenimine for at least 1 h]. […] Following addition of scintillation cocktail, the samples were allowed to equilibrate overnight. The amount of bound radioactivity was determined by liquid scintillation spectrometry using a Wallac Winspectral 1414 liquid scintillation counter.

[3] = molecular target: T2, σ1-receptor; assay: Sigma 1 (Version B) radioligand binding, [3H]-(+)-pentazocine, guinea pig brain preparation; design: the σ1-receptor preparation was prepared from guinea pig brain; from tissue; host or cells: guinea pig brain membrane homogenate
Protocol: In brief the σ1-receptor preparation was prepared from guinea pig brain. The brains were homogenized in 5 to 6 times of volume sucrose solution (0.32M) and homogenized. The homogenate was centrifuged at 2900 rpm, 4° C., 10 min). the supernatant was centrifuged again (23500×g, 4° C., 20 min). The pellet was resuspended in Tris-buffer, incubated for 30 min at room temperature and centrifuged f (23500×g, 4° C., 20 min). The pellet was resuspended in cold TRIS-buffer and homogenized. Then the protein content was measured (approx. 1.5 mg/mL) and the homogenate frozen at −80° C. for later use.
The radioligand used was […]-(+)-Pentazocin in TRIS-buffer. In a volume of 200 μL 50 μL TRIS-buffer, 50 μL compound solution of varying concentration, 50 μL radioligand-solution (8 nM; resulting in 2 nM in the assay) and finally 50 μL of receptor preparation (approx. 1.5 mg/mL) were given into a well of a microplate equipped with a filter. The plate was closed and stirred for 2.5 h at 37° C. and 500 rpm. Following that the solvents were removed by a harvester through the filter. After rinsing with H2O the filter was measured in a scintillation counter ([^3H]-protocol).

[4] = version B, guinea pig brain, [3H]-(+)-pentazocine 2 nM, read-out: Binding σ1 Ki

T2 sequence (Q60492 whole entry): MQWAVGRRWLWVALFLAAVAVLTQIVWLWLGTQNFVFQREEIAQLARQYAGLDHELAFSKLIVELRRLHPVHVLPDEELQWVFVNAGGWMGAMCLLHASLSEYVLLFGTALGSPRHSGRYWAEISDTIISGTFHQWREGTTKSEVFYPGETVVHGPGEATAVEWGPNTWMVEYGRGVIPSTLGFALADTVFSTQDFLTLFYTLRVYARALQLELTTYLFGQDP

| SMILES | Ki [1] | Ki [2] | Ki [3, 4] | Ki [3] | inhibition at 1 µM [1] |
| --- | --- | --- | --- | --- | --- |
| COC1OC2(CCN(Cc3ccccc3)CC2)c2cnn(-c3ccccc3)c21 (stereo not shown) [Example 3, 1-Benzyl-6′-methoxy-1′-phenyl-4′,6′-dihydro-1′H-spiro[piperidin-4,4′-furo[3,4-c]pyrazole]] | 1750 nM | 2.7 nM | – | – | – |
| CCCCN1CCC2(CC1)OC(OC)c1c2cnn1-c1ccccc1 (stereo not shown) [Example 4, 1-Butyl-6′-methoxy-1′-phenyl-4′,6′-dihydro-1′H-spiro[piperidin-4,4′-furo[3,4-c]pyrazole]] | 1050 nM | 1.2 nM | 1.28 nM | – | – |
| COC1Cc2c(cnn2-c2ccccc2)C2(CCN(C(C)C)CC2)O1 (stereo not shown) [Example 8, 1-Isopropyl-6′-methoxy-1′-phenyl-6′,7′-dihydro-1′H-spiro[piperidin-4,4′ pyrano[4,3-c]pyrazole]] | 3210 nM | > 100 nM | – | – | – |
| COC1Cc2c(cnn2-c2ccccc2)C2(CCN(CC(C)C)CC2)O1 (stereo not shown) [Example 10, 1-Isobutyl-6′-methoxy-1′-phenyl-6′,7′-dihydro-1′H-spiro[piperidin-4,4′-pyrano[4,3-c]pyrazole]] | 933 nM | 9.4 nM | – | – | – |
| COC1Cc2c(cnn2-c2ccccc2)C2(CCN(CCC(C)C)CC2)O1 (stereo not shown) [Example 12, 1-Isopentyl-6′-methoxy-1′-phenyl-6′,7′-dihydro-1′H-spiro[piperidin-4,4′-pyrano[4,3-c]pyrazole]] | 316 nM | 2.5 nM | – | 0.97 nM | – |
| COC1Cc2c(cnn2-c2ccccc2)C2(CCN(CC=C(C)C)CC2)O1 (stereo not shown) [Example 13, 6′-Methoxy-1-(3-methylbut-2-en-1-yl)-1′-phenyl-6′,7′-dihydro-1′H-spiro[piperidin-4,4′ pyrano[4,3-c]pyrazole]] | – | 7.3 nM | – | 1.64 nM | 3% |
| CCCCCCCCN1CCC2(CC1)OC(OC)Cc1c2cnn1-c1ccccc1 (stereo not shown) [Example 14, 6′-Methoxy-1-octyl-1′-phenyl-6′,7′-dihydro-1′H-spiro[piperidin-4,4′-pyrano[4,3-c]pyrazole]] | 209 nM | 41 nM | – | 2.86 nM | – |
| COC1Cc2c(cnn2-c2ccccc2)C2(CCN(CC3CCCCC3)CC2)O1 (stereo not shown) [Example 15, 1-(Cyclohexan-1-ylmethyl)-6′-methoxy-1′-phenyl-6′,7′-dihydro-1′H-spiro[piperidin-4,4′-pyrano[4,3-c]pyrazole]] | 109 nM | 7.9 nM | – | 0.55 nM | – |
| COC1Cc2c(cnn2-c2ccccc2)C2(CCN(CCCCc3ccccc3)CC2)O1 (stereo not shown) [Example 18, 6′-Methoxy-1′-phenyl-1-(4-phenylbutyl)-6′,7′-dihydro-1′H-spiro[piperidin-4,4′-pyrano[4,3-c]pyrazole]] | 428 nM | 15.7 nM | – | 3.22 nM | – |
| COC1Cc2c(cnn2-c2ccccc2)C2(CCN(Cc3ccco3)CC2)O1 (stereo not shown) [Example 19, 1-(Furan-2-ylmethyl)-6′-methoxy-1′-phenyl-6′,7′-dihydro-1′H-spiro[piperidin-4,4′-pyrano[4,3-c]pyrazole]] | 5220 nM | 3.8 nM | – | 2.21 nM | – |
| COC1Cc2c(cnn2-c2ccccc2)C2(CCN(Cc3ccc(F)cc3)CC2)O1 (stereo not shown) [Example 21, 1-(4-Fluorbenzyl)-6′-methoxy-1′-phenyl-6′,7′-dihydro-1′H-spiro[piperidin-4,4′-pyrano[4,3-c]pyrazole]] | 687 nM | 7.7 nM | – | 0.94 nM | – |
| Cn1ncc2c1CC(O)OC21CCN(Cc2ccccc2)CC1 (stereo not shown) [Example 28, 1-Benzyl-1′-methyl-6′,7′-dihydro-1′H-spiro[piperidin-4,4′-pyrano[4,3-c]pyrazole]-6′-ol] | – | – | – | 190 nM | 21% |
| Cn1ncc2c1C=COC21CCN(Cc2ccccc2)CC1 [Example 29, 1-Benzyl-1′-methyl-1′H-spiro[piperidin-4,4′-pyrano[4,3-c]pyrazole]] | 429 nM | – | – | 11.8 nM | – |
| Cn1ncc2c1CCOC21CCN(Cc2ccccc2)CC1 [Example 30, 1-Benzyl-1′-methyl-6′,7′-dihydro-1′H-spiro[piperidin-4,4′-pyrano[4,3-c]pyrazole]] | 191 nM | – | – | 9.18 nM | – |
| OC1Cc2c(cnn2-c2ccccc2)C2(CCN(Cc3ccccc3)CC2)O1 (stereo not shown) [Example 32, 1-Benzyl-1′-phenyl-6′,7′-dihydro-1′H-spiro[piperidin-4,4′-pyrano[4,3-c]pyrazole]-6′-ol] | – | – | – | 27.1 nM | 41% |
| C1=Cc2c(cnn2-c2ccccc2)C2(CCN(Cc3ccccc3)CC2)O1 [Example 33, 1-Benzyl-1′-phenyl-1′H-spiro[piperidin-4,4′-pyrano[4,3-c]pyrazole]] | 557 nM | – | – | 1.48 nM | – |
| c1ccc(CN2CCC3(CC2)OCCc2c3cnn2-c2ccccc2)cc1 [Example 34, 1-Benzyl-1′-phenyl-6′,7′-dihydro-1′H-spiro[piperidin-4,4′-pyrano[4,3-c]pyrazole]] | 773 nM | – | – | 1.71 nM | – |
| CC(C)CCN1CCC2(CC1)OCCc1c2cnn1-c1ccccc1 [Example 35, 1-Isopentyl-1′-phenyl-6′,7′-dihydro-1′H-spiro[piperidin-4,4′-pyrano[4,3-c]pyrazole]] | 83.3 nM | – | 0.98 nM | – | – |
| CC(C)=CCN1CCC2(CC1)OCCc1c2cnn1-c1ccccc1 [Example 36, 1-(Methylbut-2-en-1-yl)-1′-phenyl-6′,7′-dihydro-1′H-spiro[piperidin-4,4′-pyrano[4,3-c]pyrazole]] | 269 nM | – | – | 0.97 nM | – |
| c1ccc(-n2ncc3c2CCOC32CCN(CC3CCCCC3)CC2)cc1 [Example 38, 1-(Cyclohexan-1-ylmethyl)-1-phenyl-6′,7′-dihydro-1′H-spiro[piperidin-4,4′-pyrano[4,3-c]pyrazole]] | 42.8 nM | – | 0.43 nM | – | – |
| CC(C)CCN1CCC2(CC1)OCCc1c2cnn1C [Example 39, 1-Isopentyl-1′-methyl-6′,7′-dihydro-1′H-spiro[piperidin-4,4′-pyrano[4,3-c]pyrazole]] | – | – | 29.9 nM | – | 27% |
| Cn1ncc2c1CCOC21CCN(CCCc2ccccc2)CC1 [Example 41] | 1070 nM | – | 17.4 nM | – | – |

— patent US20100197714A1, “SPIRO-PYRANO-PYRAZOLE DERIVATIVES” (priority 2007, published 2010)
